Values quoted from earlier work as cited in patent US20150082465A1, “System and Method for Whole-Animal High-Throughput Compound Screening” (System959, LLC, priority 2013, published 2015).

Tested on: C. elegans
Conditions: by antagonizing egl-19, an L-type calcium channel

In the case of `CCOC(=O)C1=C(C)NC(C)=C(C(=O)OCC)C1c1c(F)c(F)c(F)c(F)c1F` [Nemadipine], the “growth of C. elegans” value is listed as “inhibit the growth”.
